# Test results published in the supplement of paper PMC10307832.
# Experiments:
# Test in all cases: relative viability (nuclei count vs DMSO), 5 days (fraction); higher = more cells survive
# Vemurafenib + Tozasertib = compound: CCCS(=O)(=O)Nc1ccc(F)c(C(=O)c2c[nH]c3ncc(-c4ccc(Cl)cc4)cc23)c1F [Vemurafenib] + Cc1cc(Nc2cc(N3CCN(C)CC3)nc(Sc3ccc(NC(=O)C4CC4)cc3)n2)n[nH]1 [Tozasertib] (partner 0.1 µM)
# In short: (§1)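 Relative viability was taken as the ratio of nuclei in treated wells to nuclei in vehicle wells. Lung cancer cell lines in 1536-well plates received compounds by pin tool one day after seeding, either one drug alone or a fixed anchor-drug dose plus five library-drug doses (not always all listed) in √10 steps. Nuclei were counted on 4× images after 5 days of treatment, and values are medians of duplicate plates.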
# Vemurafenib + Pictilisib = compound: CCCS(=O)(=O)Nc1ccc(F)c(C(=O)c2c[nH]c3ncc(-c4ccc(Cl)cc4)cc23)c1F [Vemurafenib] + CS(=O)(=O)N1CCN(Cc2cc3nc(-c4cccc5[nH]ncc45)nc(N4CCOCC4)c3s2)CC1 [Pictilisib] (partner 1 µM)
# In short: as §1
# [1] = compound: CCCS(=O)(=O)Nc1ccc(F)c(C(=O)c2c[nH]c3ncc(-c4ccc(Cl)cc4)cc23)c1F [Vemurafenib] + CC(=O)c1c(C)c2cnc(Nc3ccc(N4CCNCC4)cn3)nc2n(C2CCCC2)c1=O [Palbociclib] (partner 0.5 µM)
# In short: as §1
# OSI-027 + Trametinib = compound: COc1cccc2cc(-c3nc([C@H]4CC[C@H](C(=O)O)CC4)n4ncnc(N)c34)[nH]c12 [OSI-027] + CC(=O)Nc1cccc(-n2c(=O)n(C3CC3)c(=O)c3c(Nc4ccc(I)cc4F)n(C)c(=O)c(C)c32)c1 [Trametinib] (partner 0.02 µM)
# In short: as §1
Cell Line,relative viability (Vemurafenib + Tozasertib; first compound 0.03162 µM),relative viability (Vemurafenib + Tozasertib; first compound 0.1 µM),relative viability (Vemurafenib + Tozasertib; first compound 0.3162 µM),relative viability (Vemurafenib + Tozasertib; first compound 1 µM),relative viability (Vemurafenib + Pictilisib; first compound 0.03162 µM),relative viability (Vemurafenib + Pictilisib; first compound 0.1 µM),relative viability (Vemurafenib + Pictilisib; first compound 0.3162 µM),relative viability (Vemurafenib + Pictilisib; first compound 1 µM),relative viability ([1]; first compound 0.03162 µM),relative viability ([1]; first compound 0.1 µM),relative viability ([1]; first compound 0.3162 µM),relative viability ([1]; first compound 1 µM),relative viability (OSI-027 + Trametinib; first compound 0.01 µM),relative viability (OSI-027 + Trametinib; first compound 0.03162 µM),relative viability (OSI-027 + Trametinib; first compound 0.1 µM),relative viability (OSI-027 + Trametinib; first compound 0.3162 µM),relative viability (OSI-027 + Trametinib; first compound 1 µM)
201T,0.95,0.915,0.925,0.975,0.651,0.67,0.702,0.677,0.37,0.309,0.365,0.402,0.742,0.716,0.717,0.717,0.674
A549,–,–,–,–,0.532,0.43,0.607,0.453,–,–,–,–,–,–,–,–,–
A-427,0.194,0.203,0.238,0.227,0.751,0.754,0.564,0.738,0.525,0.481,–,0.553,0.721,0.747,0.574,0.437,0.329
ABC-1,0.151,0.174,0.181,0.202,0.751,0.536,0.658,0.753,0.744,0.57,0.767,0.545,–,–,–,–,–
BEN,0.515,0.52,–,0.426,0.529,0.593,0.358,0.431,0.489,0.492,0.421,0.491,0.9,0.787,0.709,0.527,0.505
CAL-12T,0.31,0.289,0.346,0.26,0.407,–,–,0.406,0.408,0.251,0.444,0.439,0.315,0.334,0.336,0.235,0.242
COR-L23,0.14,0.202,0.181,0.143,0.684,0.615,0.598,0.544,0.325,0.257,0.178,0.265,0.571,0.639,0.525,0.485,0.254
COR-L 105,0.394,–,–,0.433,0.467,–,0.406,0.368,0.405,–,0.328,0.403,0.406,0.396,0.394,0.376,0.459
Calu-6,–,–,–,–,0.888,0.902,0.741,0.822,–,–,–,–,–,–,–,–,–
ChaGo-K-1,0.22,0.195,0.257,0.204,0.657,0.587,–,0.625,0.941,0.884,0.878,0.913,0.919,0.903,0.833,0.882,0.661
EBC-1,–,–,–,–,0.36,0.335,0.335,0.36,–,–,–,–,–,–,–,–,–
EKVX,0.351,–,0.383,0.326,0.446,–,0.501,0.451,0.41,–,0.367,0.422,0.413,0.359,0.3,0.293,0.313
EMC-BAC-2,0.303,0.28,0.212,0.237,0.46,0.474,0.454,0.544,0.491,0.416,0.407,0.468,0.857,0.927,0.816,0.797,0.503
EPLC-272H,0.277,0.106,0.281,0.182,0.277,0.278,0.295,0.336,0.34,0.3,0.413,0.353,0.293,0.278,0.254,0.236,0.239
H3255,0.603,–,0.644,0.619,0.474,–,0.48,0.452,0.318,–,0.301,0.307,0.527,0.594,0.514,0.476,0.414
HARA,0.0946,0.0784,0.138,0.12,0.41,–,0.459,0.486,0.26,0.17,0.304,0.318,0.719,0.616,0.556,0.398,0.386
HCC-15,0.375,0.4,0.389,0.253,0.653,0.773,0.727,0.578,0.717,0.689,0.673,0.775,0.317,0.365,0.352,0.283,0.238
HCC-44,0.829,0.917,–,0.763,0.443,0.5,0.478,0.646,0.957,0.887,0.957,0.926,1.04,1.07,1.05,0.942,0.795
HCC-78,0.405,0.316,0.507,0.468,0.222,0.214,0.429,0.185,0.495,0.464,0.473,0.537,0.689,0.646,0.74,0.637,0.35
HCC-366,0.0795,0.0611,0.0563,0.0677,0.137,0.15,–,0.163,0.359,0.332,–,0.321,0.333,0.433,0.454,0.282,0.195
HCC-827,0.397,–,0.42,0.41,0.791,–,1.03,0.981,0.413,–,0.509,0.511,0.555,0.491,0.45,0.433,0.309
HOP-62,0.418,0.372,0.332,0.389,0.739,0.589,0.517,0.458,0.436,0.437,0.371,0.396,0.383,0.347,0.375,0.329,0.294
IA-LM,–,–,–,–,0.309,0.358,0.758,0.476,–,–,–,–,–,–,–,–,–
